Data as given in the supplement of paper PMC10307832.

Assays:
Assay in all cases: relative viability (nuclei count vs DMSO), 5 days (fraction); higher = more cells survive
[1] = compound: CC1=CC(=NN1)NC2=CC(=NC(=N2)/C=C/C3=CC=CC=C3)N4CCN(CC4)C + Cc1cc(Nc2cc(N3CCN(C)CC3)nc(Sc3ccc(NC(=O)C4CC4)cc3)n2)n[nH]1 [Tozasertib] (partner 0.1 µM)
Summary of the method: (§1)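 Relative viability was taken as the ratio of nuclei in treated wells to nuclei in vehicle wells. Lung cancer cell lines in 1536-well plates received compounds by pin tool one day after seeding, either one drug alone or a fixed anchor-drug dose plus five library-drug doses (not always all listed) in √10 steps. Nuclei were counted on 4× images after 5 days of treatment, and values are medians of duplicate plates.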

[2] = compound: CC(C)C[C@H](NC(=O)[C@H](Cc1ccccc1)NC(=O)c1cnccn1)B(O)O [Bortezomib] + Nc1nc2[nH]cc(CCc3ccc(C(=O)N[C@@H](CCC(=O)O)C(=O)O)cc3)c2c(=O)[nH]1 [Pemetrexed] (partner 0.2 µM)
Summary of the method: as §1

[3] = compound: CC(C)C[C@H](NC(=O)[C@H](Cc1ccccc1)NC(=O)c1cnccn1)B(O)O [Bortezomib] + CC1(C)CCC(c2ccc(Cl)cc2)=C(CN2CCN(c3ccc(C(=O)NS(=O)(=O)c4ccc(N[C@H](CCN5CCOCC5)CSc5ccccc5)c(S(=O)(=O)C(F)(F)F)c4)cc3)CC2)C1 [Navitoclax] (partner 0.5 µM)
Summary of the method: as §1

[4] = compound: COC1=CC(c2cc3ccccc3[nH]2)=N/C1=C\c1[nH]c(C)cc1C [Obatoclax] + CCNC(=O)c1noc(-c2cc(C(C)C)c(O)cc2O)c1-c1ccc(CN2CCOCC2)cc1 [Luminespib] (partner 0.01 µM)
Summary of the method: as §1

| Cell Line | relative viability ([1]; first compound 0.08 µM) | relative viability ([1]; first compound 0.253 µM) | relative viability ([1]; first compound 0.8 µM) | relative viability ([1]; first compound 2.53 µM) | relative viability ([1]; first compound 8 µM) | relative viability ([2]; first compound 0.0002 µM) | relative viability ([2]; first compound 0.000632 µM) | relative viability ([2]; first compound 0.002 µM) | relative viability ([2]; first compound 0.006325 µM) | relative viability ([2]; first compound 0.02 µM) | relative viability ([3]; first compound 0.0002 µM) | relative viability ([3]; first compound 0.002 µM) | relative viability ([3]; first compound 0.006325 µM) | relative viability ([3]; first compound 0.02 µM) | relative viability ([4]; first compound 0.01 µM) | relative viability ([4]; first compound 0.03162 µM) | relative viability ([4]; first compound 0.3162 µM) | relative viability ([4]; first compound 1 µM) | relative viability ([3]; first compound 0.000632 µM) | relative viability ([4]; first compound 0.1 µM) |
| --- | --- | --- | --- | --- | --- | --- | --- | --- | --- | --- | --- | --- | --- | --- | --- | --- | --- | --- | --- | --- |
| NCI-H2405 | 0.751 | 0.72 | 0.674 | 0.421 | 0.185 | 1.02 | 0.792 | 1.11 | 0.121 | 0.14 | 0.769 | 0.134 | 0.0865 | 0.113 | 0.606 | 0.67 | 0.782 | 0.735 | – | – |
| NCI-H3122 | 0.373 | 0.408 | 0.408 | 0.33 | 0.231 | 0.2 | 0.202 | 0.195 | 0.171 | 0.117 | 1.01 | 1.06 | 0.625 | 0.167 | 0.0984 | 0.0854 | 0.0772 | 0.0894 | 1.04 | 0.0999 |
| PC-3 [JPC-3] | 0.886 | 0.899 | 0.839 | 0.74 | 0.461 | 1.02 | 1.14 | 0.727 | 0.196 | 0.184 | 0.783 | 0.724 | 0.44 | 0.139 | 0.652 | 0.606 | 0.683 | 0.745 | 0.842 | 0.742 |
| PC-14 | 0.634 | 0.619 | 0.55 | 0.359 | 0.0595 | 0.126 | 0.142 | 0.166 | 0.0636 | 0.078 | 1.02 | 0.992 | 0.0667 | 0.0697 | 0.132 | 0.138 | 0.13 | 0.146 | 0.941 | 0.148 |
| RERF-LC-KJ | 0.545 | 0.437 | 0.306 | 0.197 | 0.2 | 0.673 | 0.459 | 0.464 | 0.347 | 0.358 | 1.01 | 0.593 | 0.247 | 0.244 | 1.07 | 1.32 | 0.583 | 0.554 | 1.19 | 1.04 |
| SK-LU-1 | 0.347 | 0.313 | 0.304 | 0.156 | 0.0914 | 0.911 | 0.984 | 0.704 | 0.188 | 0.161 | 0.781 | 0.903 | 0.0872 | 0.0835 | 0.195 | 0.205 | 0.173 | 0.11 | 0.83 | 0.173 |
| SK-MES-1 | 0.881 | 0.912 | 0.656 | 0.177 | 0.13 | 0.956 | 1.02 | 0.915 | 0.211 | 0.167 | 1.24 | 1.22 | 0.198 | 0.146 | 0.737 | 0.837 | 0.298 | 0.252 | 1.28 | 0.677 |
| SW 1573 | 0.213 | 0.162 | 0.162 | 0.133 | 0.0849 | 0.844 | 0.993 | 0.76 | 0.0663 | 0.0512 | 0.849 | 0.928 | 0.0531 | 0.0615 | 0.26 | 0.442 | 0.188 | 0.164 | 1.12 | 0.206 |
| UMC-11 | 0.191 | 0.212 | 0.206 | 0.183 | 0.162 | 0.694 | 0.875 | 0.745 | 0.39 | 0.17 | 0.288 | 0.315 | 0.12 | 0.101 | 0.993 | 0.968 | 1.07 | 0.428 | 0.281 | 1.05 |
